Consider one molecule from patent publication US20250120988A1, “SMALL MOLECULE COMPOUND FOR TREATING ISCHEMIC STROKE, ITS PREPARATION METHOD, AND APPLICATION” (SHANGHAI SIXTH PEOPLE'S HOSPITAL, priority 2023, published 2025).

Usually AUC(0-inf) stands for total exposure, with the tail of the curve extrapolated. The low end stands for less exposure, the high end for more exposure. The term AUC(0-t) denotes the area under the concentration-time curve up to a stated or last time point. The Cmax is the maximum level reached in the sampled fluid or tissue. What is called Tmax is the time at which the peak concentration occurs. Usually half-life stands for how long it takes for the measured level to halve. A low value points to rapid decline.

Data set [1] relates to MCAO model. Nature of the data set: MCAO cerebral ischemia model, cerebral infarction volume (TTC staining). The conditions noted are these: 30 mg/kg intraperitoneal; MCAO 30 minutes, 24 hours after ischemia. It counts as in vivo, mice. The method, then:
Figure a illustrates the TTC staining results of brain slices obtained from animals sacrificed 24 hours after different drug treatments following MCAO ischemia for 30 minutes. The dark areas represent normal brain tissue, while the white areas represent infarcted brain tissue. CGS19755 was administered at a concentration of 1 mg/kg (intraperitoneal injection), PcTX-1 was administered at a concentration of 100 ng/kg (ASIC1a blocker, intranasal drip), LK-2 was administered at concentrations of 10 mg/kg or 30 mg/kg (intraperitoneal injection), and Saline was used as the control group. […] The specific steps are as follows: a transient focal ischemic model was formed by occluding the middle cerebral artery for 30 minutes in wild-type or ASIC1a gene knockout mice. The animals were anesthetized using the animal anesthesia machine (RWD). During the induction of anesthesia, the animals are placed in a transparent chamber (15×25×30 cm) containing 2% isoflurane. During the MCAO procedure, the animals are worn a mask delivering 1% isoflurane. Complete occlusion of the middle cerebral artery was confirmed using continuous laser Doppler blood flow measurement (Moor, FLPI-2). Animals with less than 50% reduction in blood flow during MCAO were excluded. […] In this test, mice were placed on the rotating rod and the time to fall was recorded. […]

The nature of data set [2]: Pharmacokinetics of single intraperitoneal injection in mice (LC-MS/MS, plasma and brain tissue). Type of data set: in vivo, male C57BL/6J mice. The settings on record: i.p. 30 mg/kg; for MRT last: read-out: MRT(0-t); for MRT inf: read-out: MRT(0-∞). The procedure: LC-MS/MS method was used to measure the concentration of LK-2 in plasma and brain tissue. LK-2 was dissolved in 0.9% saline to a concentration of 1 mg/ml. Blood samples were collected at 5 min, 15 min, 30 min, 1.0 h, 2.0 h, and 4.0 h time points into EDTA-coated tubes, then centrifuged at 2,000 g for 15 min to generate plasma samples. Brain tissue samples were collected after perfusion with saline through the left ventricle, and the brain tissue were diluted and homogenized with 5 volumes (w:v) of 0.9% NaCl. LC-MS/MS method for quantification of LK-2 in plasma and brain tissue samples was developed using LC-MS/MS-T_API4000 instrument. The general sample processing procedure is as follows. • 1) 30 μl plasma samples were divided, standard samples were calibrated with quality control, and single blank and double blank samples were added into 1.5 ml tubes, respectively. 40 μl brain tissue homogenate were added to each well of a 96-well plate, respectively, and standard samples were calibrated with quality control, single blank and double blank samples were aliquoted. • 2) Each sample (excluding double blanks) was mixed with 150 μl (plasma samples) or 200 μl (brain tissue homogenate) of internal standard solution [a 6-in-1 internal standard solution (100 ng/ml each of labetalol, tolbutamide, verapamil, dexamethasone, glipizide, and celecoxib dissolved in methanol) and 40 mM dibutyl acetic acid] to terminate the reaction (double blank samples were terminated with 40 mM dibutyl acetic acid in methanol). The mixture was then thoroughly vortexed for at least 15 s and centrifuged at 12000 g (plasma samples) or 3220 g (brain homogenate) at 4° C. for 15 minutes. • 3) 65 μl of the supernatant was evenly transferred into a 96-well plate and centrifuge at 3220 g, 4° C. for 5 minutes. All procedures were performed on wet ice. All the supernatant was directly injected for LC-MS/MS analysis. The chromatographic column was ACQUITY UPLC BEHC18 with 2.1×100 mm, 1.7 μm. The column temperature was at 40° C. and the flow rate was 0.4 mL/min. The mobile phase A was 0.001% NH3·H2O, 0.18 mM dibutylamine acetate aqueous solution, and mobile phase B was 10 mM N,O-dimethylhydroxylamine and 3 mM NH4OAc solution, acetonitrile/aqueous solution (v:v, 50:50). Standard curves were prepared by spiking compounds into control plasma and brain to determine drug concentrations. Pharmacokinetic parameters and average concentrations at each time point were calculated using DAS 2.0 software through non-compartmental analysis (NCA), as shown in Table 1.

Setting [3] is: male, C57BL/6J, mouse, ip, Brain tissue.
[4] abbreviates: male, C57BL/6J, mouse, ip, Plasma.

Where two headings read alike, the source gives them in different places.

As to `O=C(O)C1CN(C(c2ccccc2)P(=O)(O)O)CCN1` (centres unmarked) [LK-2], in data set [1], the “reduction of volume of cerebral infarction” value turned out to be 52.8%. Moreover, in data set [2] (Brain tissue), the CL is 634.03 ± 53.28 mL/min/kg and the V stood at 124.755 ± 15.127 L/kg. Besides, in data set [2] (Plasma), the CL was determined as 7.13 ± 0.317 mL/min/kg and the V was determined as 0.356 ± 0.021 L/kg. For the same molecule, in data set [2] (male, C57BL/6J, mouse, brain/plasma, ip, read-out: Brain/plasma AUC ratio), the Kp turned out to be 0.0127 ± 0.0006. Also, in data set [2] (setting [3]), the area under the curve AUC(0-inf) was 793 ± 68 ng·h/mL, the AUC(0-t) came out at 523 ± 27.9 ng·h/mL, the highest level (Cmax) was 236 ± 31.9 ng/mL and the Tmax was determined as 30 min. For the same molecule, in data set [2] (setting [3]), the half-life is 138 ± 26.5 min, the MRT last came to 106 ± 4.68 min and the MRT inf came out at 218 ± 36.7 min. In addition, in data set [2] (setting [4]), the area under the curve AUC(0-inf) stood at 70300 ± 3130 ng·h/mL, the area under the curve AUC(0-t) is 69800 ± 3120 ng·h/mL, the concentration peaked (Cmax) at 92700 ± 8310 ng/mL and the time of peak concentration (Tmax) worked out at 30 min. In data set [2] (setting [4]), the half-life is 34.6 ± 0.9 min, the MRT last turned out to be 41.6 ± 1.14 min and the MRT inf came out at 43.3 ± 1.08 min.
